Like-named read-outs stand apart in the source and are kept apart here.
Tests used:
AuroraB = molecular target: T1, AuroraB (Homo sapiens, UniProt Q96GD4); assay: AuroraB Homogeneous Time Resolved Fluorescent (HTRF) kinase assay; type: biochemical; settings: average, read-out: AurB_ _IC50_IP (Avg)
T1 construct: 20 µL of AuroraB FL His; His
Procedure, shortened: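 Full-length His-tagged AuroraB (400 pM) phosphorylates 0.1 µM biotinylated Histone H3 with 23 µM ATP (Km(app)) in HEPES pH 7.5 with Mg/Mn, about 90 min. EDTA-quenched; Eu-anti-phosphoHistoneH3 and SA-APC HTRF, 655/615 nm ratio as phosphorylation.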

[1] = test system: phosphorylation of Histone H3; assay: HeLa cell 1-hour phospho-histone assay; type: cell-based; settings: Homo sapiens, HeLa, 1 h, HeLa cells, 1 hour, average, read-out: pHH3 EC50_IP (Avg)
Description: HeLa cell 1-hour phospho-histone assay
The purpose of this assay is to test the inhibitory effect of Aurora compounds with respect to phosphorylation of Histone H3 in the cellular context. HeLa cells (9x10^4/well) are plated in black 96-well flat-bottom tissue culture plates and incubated for 40 hours prior to compound addition. Compounds are serially diluted in DMSO, followed by dilution into MEM containing […] HEPES; 10ul/well of diluted compounds are added to cells (0.5% DMSO final). Cells are incubated for 1 hour at 37 °C in 5% CO2. Cells are then fixed with 3.7% formaldehyde for 10 minutes, washed with wash buffer (1% goat serum and 0.1% Tween 20 in PBS), then permeabilized with 0.5% Triton X in PBS for 15 minutes. After washing with wash buffer, cells are incubated with primary antibody (Upstate #06-507 anti-phospho-histone (Ser 10) antibody (pHH3) for 1 hour at 10ug/ml. After 2 washes with wash buffer, cells are incubated with secondary antibody (Molecular Probes #A11034 goat anti-rabbit Alexa-488 for 1 hour at 1ug/ml + Hoechst 33342 nuclear dye at 1ug/ml (Molecular Probes). Cells are washed 2 times with wash buffer, and buffer replaced with PBS. Plates are scanned on the Cellomics Array Scan (6 fields, ~2000 cells/well) and % of cells that are pHH3 positive were calculated using the Cellomics algorithm.

AuroraA-TPX2 = molecular target: T2, AuroraA-TPX2 (Homo sapiens, UniProt O14965); assay: AuroraA-TPX2 Homogeneous Time Resolved Fluorescent (HTRF) kinase assay; type: biochemical; settings: average, read-out: AurA/TP X2_ IC50_IP (Avg)
T2 construct: 20 µL of AuroraA-TPX2 KD GST; GST
T2 sequence (O14965 133-383 limits assumed): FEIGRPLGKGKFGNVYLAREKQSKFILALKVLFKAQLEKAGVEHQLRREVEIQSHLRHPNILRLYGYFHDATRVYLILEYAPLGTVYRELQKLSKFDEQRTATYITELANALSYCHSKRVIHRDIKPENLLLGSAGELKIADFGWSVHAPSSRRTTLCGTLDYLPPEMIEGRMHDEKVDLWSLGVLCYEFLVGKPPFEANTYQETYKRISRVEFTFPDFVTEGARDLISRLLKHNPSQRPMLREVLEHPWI
T2 sequence (Q9ULW0 1-43 partner limits assumed): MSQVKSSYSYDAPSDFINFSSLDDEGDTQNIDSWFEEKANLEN
Procedure, shortened: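 Aurora-A/TPX2 phosphorylates biotinylated PLK peptide (about 1 µM) with ATP for about 120 min in 60 mM HEPES pH 7.5, 10 mM MgCl2, 2 mM DTT. EDTA quench, overnight equilibration with Eu-anti-phosphoPLK antibody and SA-APC; HTRF read at 615/655 nm after 320 nm excitation.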

[2] = given as numbers, unit inferred

T1 sequence (Q96GD4 whole entry): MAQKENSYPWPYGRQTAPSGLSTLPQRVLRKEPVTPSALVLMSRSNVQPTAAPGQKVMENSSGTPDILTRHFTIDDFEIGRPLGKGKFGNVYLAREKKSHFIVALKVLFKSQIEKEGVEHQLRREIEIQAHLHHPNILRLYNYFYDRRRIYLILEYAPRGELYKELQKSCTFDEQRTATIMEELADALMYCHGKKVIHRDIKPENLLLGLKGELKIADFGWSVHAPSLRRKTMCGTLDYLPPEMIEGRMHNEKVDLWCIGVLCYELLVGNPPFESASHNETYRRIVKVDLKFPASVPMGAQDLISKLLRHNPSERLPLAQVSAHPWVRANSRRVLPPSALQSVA

Row | SMILES | IC50 (AuroraB; given as class symbols) [µM] | EC50 ([1]; given as class symbols) [µM] | IC50 (AuroraA-TPX2; given as class symbols) [µM] | IC50 (AuroraB; [2]) [µM] | EC50 [1, 2] [µM] | IC50 (AuroraA-TPX2; [2]) [µM]
1 | CCN(CCO)CCCNc1nccc(-c2cccnc2Oc2ccc(Nc3nnc(-c4ccccc4)cc3C)cc2)n1 [compound 350, 2-(ethyl(3-((4-(2-((4-((4-methyl-6-phenyl-3-pyridazinyl)amino)phenyl)oxy)-3-pyridinyl)-2-pyrimidinyl)amino)propyl)amino)ethanol] | ≤ 0.1 | 0.1 to 0.5 | ≤ 0.1 | – | – | –
2 | Cc1n[nH]cc1-c1cccnc1Oc1ccc(Nc2nnc(-c3ccccc3)c3ccccc23)cc1 [compound 300, N-(4-((3-(3-methyl-1H-pyrazol-4-yl)-2-pyridinyl)oxy)phenyl)-4-phenyl-1-phthalazinamine] | 0.1 to 0.5 | 0.1 to 0.5 | 0.1 to 0.5 | – | – | –
3 | CN1CCN(CCCNc2nccc(-c3cccnc3Oc3ccc(Nc4nnc(-c5ccccc5)c5ccccc45)cc3)n2)CC1 [compound 333, N-(4-((3-(2-((3-(4-methyl-1-piperazinyl)propyl)amino)-4-pyrimidinyl)-2-pyridinyl)oxy)phenyl)-4-phenyl-1-phthalazinamine] | ≤ 0.1 | ≤ 0.1 | ≤ 0.1 | – | – | –
4 | Cc1csc(-c2nnc(Nc3ccc(Oc4ncccc4-c4ccnc(N)c4)cc3)c3ccccc23)n1 [compound 345, 2-((4-((4-(4-methyl-1,3-thiazol-2-yl)-1-phthalazinyl)amino)phenyl)oxy)-3,4'-bipyridin-2'-amine] | ≤ 0.1 | 0.1 to 0.5 | ≤ 0.1 | – | – | –
5 | Cc1ccc(-c2nnc(Nc3ccc(Oc4ncccc4-c4c[nH]nc4N)cc3)c3ccccc23)cc1 [compound 301, N-(4-((3-(3-amino-1H-pyrazol-4-yl)-2-pyridinyl)oxy)phenyl)-4-(4-methylphenyl)-1-phthalazinamine] | – | – | – | 0.0031 | 0.166 | 0.0055
6 | OCC(O)CNc1nccc(-c2cccnc2Oc2ccc(Nc3nnc(-c4ccccc4)c4ccccc34)cc2)n1 (stereo not drawn) [compound 337, 3-((4-(2-((4-((4-phenyl-1-phthalazinyl)amino)phenyl)oxy)-3-pyridinyl)-2-pyrimidinyl)amino)-1,2-propanediol] | ≤ 0.1 | 0.1 to 0.5 | ≤ 0.1 | – | – | –
7 | c1ccc(-c2nnc(Nc3ccc(Oc4ncccc4-c4ccnc(NCCCN5CCNCC5)n4)cc3)c3ccccc23)cc1 [compound 340, 4-phenyl-N-(4-((3-(2-((3-(1-piperazinyl)propyl)amino)-4-pyrimidinyl)-2-pyridinyl)oxy)phenyl)-1-phthalazinamine] | ≤ 0.1 | 0.1 to 0.5 | ≤ 0.1 | – | – | –
8 | Nc1n[nH]cc1-c1cccnc1Oc1ccc(Nc2nnc(-c3ccccc3)c3c2CCCC3)cc1 [compound 308, N-(4-((3-(3-amino-1H-pyrazol-4-yl)-2-pyridinyl)oxy)phenyl)-4-phenyl-5,6,7,8-tetrahydro-1-phthalazinamine] | ≤ 0.1 | 0.5 to 2.5 | ≤ 0.1 | – | – | –
9 | Nc1n[nH]cc1-c1cccnc1Oc1ccc(Nc2nnc(-c3cccc(CO)c3)c3ccccc23)cc1 [compound 305, (3-(4-((4-((3-(3-amino-1H-pyrazol-4-yl)-2-pyridinyl)oxy)phenyl)amino)-1-phthalazinyl)phenyl)methanol] | ≤ 0.1 | 0.5 to 2.5 | ≤ 0.1 | – | – | –
10 | CN(C)Cc1cccc(-c2nnc(Nc3ccc(Oc4ncccc4-c4ccnc(N)n4)cc3)c3ccccc23)c1 [compound 299, N-(4-((3-(2-amino-4-pyrimidinyl)-2-pyridinyl)oxy)phenyl)-4-(3-((dimethylamino)methyl)phenyl)-1-phthalazinamine] | ≤ 0.1 | 0.5 to 2.5 | 0.1 to 0.5 | – | – | –
11 | Cc1csc(-c2nnc(Nc3ccc(Oc4ncccc4-c4c[nH]nc4N)cc3)c3ccccc23)c1 [compound 307, N-(4-((3-(3-amino-1H-pyrazol-4-yl)-2-pyridinyl)oxy)phenyl)-4-(4-methyl-2-thienyl)-1-phthalazinamine] | ≤ 0.1 | 0.1 to 0.5 | ≤ 0.1 | – | – | –
12 | CCN(CCO)CCCCNc1nccc(-c2cccnc2Oc2ccc(Nc3nnc(-c4ccccc4)c4ccccc34)cc2)n1 [compound 347, 2-(ethyl(4-((4-(2-((4-((4-phenyl-1-phthalazinyl)amino)phenyl)oxy)-3-pyridinyl)-2-pyrimidinyl)amino)butyl)amino)ethanol] | ≤ 0.1 | ≤ 0.1 | ≤ 0.1 | – | – | –
13 | CCN(CCO)CCCCNc1nccc(-c2cccnc2Oc2ccc(Nc3nnc(-c4ccccc4)cc3C)cc2)n1 [compound 348, 2-(ethyl(4-((4-(2-((4-((4-methyl-6-phenyl-3-pyridazinyl)amino)phenyl)oxy)-3-pyridinyl)-2-pyrimidinyl)amino)butyl)amino)ethanol] | ≤ 0.1 | 0.1 to 0.5 | ≤ 0.1 | – | – | –
14 | Nc1nccc(-c2cccnc2Oc2ccc(Nc3nnc(-c4cccc(O)c4)c4ccccc34)cc2)n1 [compound 343, 3-(4-((4-((3-(2-amino-4-pyrimidinyl)-2-pyridinyl)oxy)phenyl)amino)-1-phthalazinyl)phenol] | ≤ 0.1 | ≤ 0.1 | ≤ 0.1 | – | – | –
15 | Cc1cc(-c2ccccc2)nnc1Nc1ccc(Oc2ncccc2-c2ccncc2)cc1 [compound 417, N-(4-(3,4'-bipyridin-2-yloxy)phenyl)-4-methyl-6-phenyl-3-pyridazinamine] | ≤ 0.1 | 0.5 to 2.5 | ≤ 0.1 | – | – | –
16 | Nc1nccc(-c2cccnc2Oc2ccc(Nc3nnc(-c4ccccc4)c4ccoc34)cc2)n1 [compound 250, N-(4-((3-(2-amino-4-pyrimidinyl)-2-pyridinyl)oxy)phenyl)-4-phenylfuro[2,3-d]pyridazin-7-amine] | – | – | – | 0.0199 | 0.175 | 0.0303
17 | CN(C)CCCCNc1nccc(-c2cccnc2Oc2ccc(Nc3nnc(-c4ccccc4)c4ccccc34)cc2)n1 [compound 338, N,N-dimethyl-N'-(4-(2-((4-((4-phenyl-1-phthalazinyl)amino)phenyl)oxy)-3-pyridinyl)-2-pyrimidinyl)-1,4-butanediamine] | ≤ 0.1 | ≤ 0.1 | ≤ 0.1 | – | – | –
18 | c1ccc(-c2nnc(Nc3ccc(Oc4nccnc4-c4ccncc4)cc3)c3ccccc23)cc1 [compound 261, 4-phenyl-N-(4-((3-(4-pyridinyl)-2-pyrazinyl)oxy)phenyl)-1-phthalazinamine] | 0.1 to 0.5 | 0.5 to 2.5 | 0.1 to 0.5 | – | – | –
19 | CN1CCN(CCCNc2cc(-c3cccnc3Oc3ccc(Nc4nnc(-c5ccccc5)c5ccccc45)cc3)ccn2)CC1 [compound 279, N-(3-(4-methyl-1-piperazinyl)propyl)-2-((4-((4-phenyl-1-phthalazinyl)amino)phenyl)oxy)-3,4'-bipyridin-2'-amine] | ≤ 0.1 | 0.1 to 0.5 | 0.1 to 0.5 | – | – | –
20 | Cc1csc(-c2nnc(Nc3ccc(Oc4ncccc4-c4ccnc(N)n4)nc3)c3ccccc23)c1 [compound 332, N-(6-((3-(2-amino-4-pyrimidinyl)-2-pyridinyl)oxy)-3-pyridinyl)-4-(4-methyl-2-thienyl)-1-phthalazinamine] | – | – | – | 0.0016 | 0.0033 | 0.0052
21 | Nc1nccc(-c2cccnc2Oc2ccc(Nc3nnc(N4CCCC(F)C4)c4ccccc34)cc2)n1 (stereo not drawn) [compound 278, N-(4-((3-(2-amino-4-pyrimidinyl)-2-pyridinyl)oxy)phenyl)-4-(3-fluoro-1-piperidinyl)-1-phthalazinamine] | – | – | – | 0.0074 | 0.282 | 0.0299
22 | Nc1nccc(-c2cccnc2Oc2ccc(Nc3nnc(-c4ccccc4)cc3-c3ccccc3)cc2)n1 [compound 246, N-(4-((3-(2-amino-4-pyrimidinyl)-2-pyridinyl)oxy)phenyl)-4,6-diphenyl-3-pyridazinamine] | ≤ 0.1 | 0.5 to 2.5 | 0.5 to 2.5 | – | – | –
